Assay results published in patent publication EP0888056B1, “HERBICIDAL MIXTURES” (BASF AKTIENGESELLSCHAFT, priority 1996, dated 1998).
Where “and” joins values, the source holds several entries; their conditions need not be identical. Equal values may be shown once.

Tests used:
Assay type in all cases: in vivo
Galium aparine = assay: greenhouse herbicidal trial, post-emergence application, assessment 21 days after treatment
Description: (§1) The trials are carried out under greenhouse conditions in pre- and post-emergence applications. The plant seeds are sown in pots containing a loamy sand soil (0.5 I). The herbicides are applied as single treatments, or in a combination comprising a BAP compound and a non-BAP compound as designated, before or after emergence of weeds and crop. The herbicidal performance is assessed as percent damage in comparison to the untreated control plants. The assessment is done 21 days after the treatment. Wheat and barley are treated at the 3-4 leaf stage, the broad-leaf weeds at the 2-4 leaf stage and annual grasses at the 2-3 leaf stage.

Lamium purpureum = assay: as above
Description: as §1

Papaver rhoeas = assay: as above
Description: as §1

Stellaria media = assay: as above
Description: as §1

Veronica persica = assay: as above
Description: as §1

Polygonum convolvulus = assay: as above
Description: as §1

Matricaria inodora = assay: as above
Description: as §1

Myosotis arvensis = assay: as above
Description: as §1

Viola arvensis = assay: as above
Description: as §1

Polygonum lapathifolium = assay: as above
Description: as §1

Alopecurus myosuroides [1] = assay: as above
Description: as §1

Lolium perenne = assay: as above
Description: as §1

Poa annua = assay: as above
Description: as §1

Setaria viridis = assay: as above
Description: as §1

Alopecurus myosuroides [2] = assay: greenhouse herbicidal trial, pre-emergence application, assessment 21 days after treatment
Description: as §1

[3] = Galium aparine (1.whorl), 15 g a.i./ha
[4] = Galium aparine (2.whorl), 15 g a.i./ha
[5] = Galium aparine (1.whorl), 60 g a.i./ha
[6] = Galium aparine (1.whorl), 120 g a.i./ha
[7] = Galium aparine (2.whorl), 60 g a.i./ha
[8] = Galium aparine (2.whorl), 120 g a.i./ha
[9] = Galium aparine (1.whorl), 30 g a.i./ha

COc1cc(OC)nc(NC(=O)NS(=O)(=O)N(C)S(C)(=O)=O)n1 [Amidosulfuron, reference compound]
% Control (Galium aparine; [3]): 40% | % Control (Galium aparine; [4]): 20% | % Control (Lamium purpureum; 30 g a.i./ha): 0% | % Control (Papaver rhoeas; 30 g a.i./ha): 15% | % Control (Stellaria media; 30 g a.i./ha): 50% | % Control (Veronica persica; 30 g a.i./ha): 0%

CCCCCCCC(=O)Oc1c(Br)cc(C#N)cc1Br [Bromoxynil, Bromoxynil Octanoate, reference compound]
% Control (Galium aparine; [5]): 70% | % Control (Galium aparine; [6]): 75% | % Control (Galium aparine; [7]): 57% | % Control (Galium aparine; [8]): 77% | % Control (Lamium purpureum; 60 g a.i./ha): 17% | % Control (Papaver rhoeas; 60 g a.i./ha): 79% | % Control (Stellaria media; 60 g a.i./ha): 0%

Cc1cc(Cl)ccc1O[C@H](C)C(=O)O [CMPP-P, (R)-2-(4-chloro-2-methylphenoxy) proprionic acid]
% Control (Lamium purpureum; 480 g a.i./ha): 67% | % Control (Papaver rhoeas; 480 g a.i./ha): 47% | % Control (Polygonum convolvulus; 480 g a.i./ha): 40%

Cn1nc(C(F)(F)F)cc1Oc1cccc(Oc2cc(C(F)(F)F)nn2C)n1 [Compound A]
% Control (Galium aparine; [9]): 80% and 57% | % Control (Galium aparine; Galium aparine (1.whorl), 50 g a.i./ha): 50% | % Control (Galium aparine; [5]): 67% | % Control (Galium aparine; Galium aparine (2.whorl), 50 g a.i./ha): 30% | % Control (Galium aparine; [7]): 42% | % Control (Lamium purpureum; 30 g a.i./ha): 65% and 62% and 35% | % Control (Matricaria inodora; 15 g a.i./ha): 1% | % Control (Matricaria inodora; 30 g a.i./ha): 1% | % Control (Myosotis arvensis; 15 g a.i./ha): 72% | % Control (Myosotis arvensis; 30 g a.i./ha): 57% | % Control (Papaver rhoeas; 15 g a.i./ha): 79% | % Control (Papaver rhoeas; 60 g a.i./ha): 10% | % Control (Stellaria media; 30 g a.i./ha): 45% and 65% | % Control (Veronica persica; 30 g a.i./ha): 81% | % Control (Viola arvensis; 30 g a.i./ha): 75%

Cc1cc(Oc2cc(C(F)(F)F)nn2C)nc(Oc2cc(C(F)(F)F)nn2C)c1 [Compound B]
% Control (Galium aparine; Galium aparine (1.whorl), 15 9 a.i./ha): 80% | % Control (Galium aparine; [3]): 67% and 40% | % Control (Galium aparine; [9]): 83% and 52% | % Control (Galium aparine; Galium aparine (2.whorl), 15 9 a.i./ha): 60% | % Control (Galium aparine; [4]): 45% and 37% | % Control (Galium aparine; Galium aparine (2.whorl), 30 g a.i./ha): 67% and 65% and 45% | % Control (Galium aparine; Galium aparine (3.whorl), 15 g a.i./ha): 40% | % Control (Galium aparine; Galium aparine (3.whorl), 30 g a.i./ha): 40% | % Control (Lamium purpureum; 7.5 g a.i./ha): 70% | % Control (Matricaria inodora; 15 9 a.i./ha): 7% | % Control (Matricaria inodora; 15 g a.i./ha): 20% | % Control (Matricaria inodora; 30 g a.i./ha): 22% | % Control (Papaver rhoeas; 7.5 g a.i./ha): 7% | % Control (Polygonum convolvulus; 15 g a.i./ha): 7% | % Control (Polygonum convolvulus; 30 g a.i./ha): 15% and 7% | % Control (Polygonum lapathifolium; 15 g a.i./ha): 17% | % Control (Stellaria media; 7.5 g a.i./ha): 25% | % Control (Stellaria media; 15 g a.i./ha): 47% and 45% and 27% | % Control (Stellaria media; 30 g a.i./ha): 62% and 42% | % Control (Veronica persica; 7.5 g a.i./ha): 65% | % Control (Veronica persica; 15 g a.i./ha): 77%

Cc1cc(OCc2ccc(F)cc2)nc(Oc2cc(C(F)(F)F)nn2C)c1 [Compound C]
% control (Alopecurus myosuroides [1]; 12.5 g a.i./ha): 65% | % control (Alopecurus myosuroides [1]; 25 g a.i./ha): 83% | % control (Alopecurus myosuroides [1]; 50 g a.i./ha): 88% | % control (Lolium perenne; 12.5 g a.i./ha): 38% | % control (Lolium perenne; 25 g a.i./ha): 65% | % control (Lolium perenne; 50 g a.i./ha): 78% | % control (Poa annua; 12.5 g a.i./ha): 75% | % Control (Setaria viridis; 12.5 g a.i./ha): 30% | % control (Setaria viridis; 12.5 g a.i./ha): 30% | % control (Setaria viridis; 25 g a.i./ha): 55% | % control (Setaria viridis; 50 g a.i./ha): 75%

Cc1cc(OCc2ccccc2)nc(Oc2cc(C(F)(F)F)nn2C)c1 [Compound D]
% Control (Alopecurus myosuroides [2]; 15 g a.i./ha): 60% and 57%

CCNc1nc(Cl)nc(NC(C)(C)C#N)n1 [Cyanazine, reference compound]
% Control (Galium aparine; [6]): 5% | % Control (Galium aparine; Galium aparine (1.whorl), 240 g a.i./ha): 10% | % Control (Galium aparine; [8]): 0% | % Control (Galium aparine; Galium aparine (2.whorl), 240 g a.i./ha): 10% | % Control (Galium aparine; Galium aparine (3.whorl), 120 g a.i./ha): 0% | % Control (Galium aparine; Galium aparine (3.whorl), 240 g a.i./ha): 5% | % Control (Matricaria inodora; 120 g a.i./ha): 52% | % Control (Matricaria inodora; 240 g a.i./ha): 85% | % Control (Papaver rhoeas; 120 g a.i./ha): 0% | % Control (Papaver rhoeas; 240 g a.i./ha): 0% | % Control (Polygonum convolvulus; 120 g a.i./ha): 60% | % Control (Stellaria media; 120 g a.i./ha): 61% | % Control (Stellaria media; 240 g a.i./ha): 72%

CC(Oc1ccc(Oc2nc3ccc(Cl)cc3o2)cc1)C(=O)O (centres unmarked) [Fenoxaprop, reference compound]
% Control (Setaria viridis; 15 g a.i./ha): 62% | % Control (Setaria viridis; 30 g a.i./ha): 72% | % Control (Setaria viridis; 60 g a.i./ha): 77%

Nc1c(Cl)c(F)nc(OCC(=O)O)c1Cl [Fluroxypyr, reference compound]
% Control (Matricaria inodora; 90 g a.i./ha): 45% | % Control (Papaver rhoeas; 90 g a.i./ha): 0% | % Control (Polygonum convolvulus; 90 g a.i./ha): 45% | % Control (Polygonum lapathifolium; 120 g a.i./ha): 80% | % Control (Stellaria media; 120 g a.i./ha): 67% | % Control (Veronica persica; 120 g a.i./ha): 52%

CC(C)c1ccc(NC(=O)N(C)C)cc1 [Isoproturon, reference compound]
% control (Alopecurus myosuroides [1]; 150 g a.i./ha): 30% | % control (Alopecurus myosuroides [1]; 300 g a.i./ha): 73% | % Control (Galium aparine; Galium aparine (2.whorl), 1920 g a.i./ha): 0% | % Control (Lamium purpureum; 1920 g a.i./ha): 3% | % control (Lolium perenne; 150 g a.i./ha): 10% | % control (Lolium perenne; 300 g a.i./ha): 40% | % Control (Myosotis arvensis; 1920 g a.i./ha): 25% | % control (Poa annua; 150 g a.i./ha): 65% | % control (Poa annua; 300 g a.i./ha): 83% | % Control (Polygonum convolvulus; 1920 g a.i./ha): 4% | % control (Setaria viridis; 150 g a.i./ha): 58% | % Control (Veronica persica; 1920 g a.i./ha): 0% | % Control (Viola arvensis; 1920 g a.i./ha): 65% | % Control (Alopecurus myosuroides [2]; 120 g a.i./ha): 75%

CCC(CC)Nc1c([N+](=O)[O-])cc(C)c(C)c1[N+](=O)[O-] [Pendimethalin]
% Control (Alopecurus myosuroides [2]; 450 g a.i./ha): 35% | % Control (Alopecurus myosuroides [2]; 900 g a.i./ha): 55%

N#Cc1cc(I)c(O)c(I)c1 [loxynil, reference compound]
% Control (Galium aparine; [5]): 40% | % Control (Galium aparine; [7]): 5% | % Control (Matricaria inodora; 60 g a.i./ha): 89% | % Control (Myosotis arvensis; 60 g a.i./ha): 37% | % Control (Papaver rhoeas; 60 g a.i./ha): 0%
